Values joined by “and” are separate entries in the source; they are usually repeats but may differ in a detail not shown here. Equal values may be shown once. Inconclusive results and toxic doses are left out.
Tested on: CD2F1 mice, L1210 leukemia ip, survival T/C
Assay: NCI In Vivo Anticancer Drug Screen. Data for tumor model L1210 Leukemia (intraperitoneal) in CD2F1 (CDF1) mice
Conditions: higher = longer survival
Method in brief: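 Antitumor effect is scored in animals hosting a serially transplanted tumor. Values compare compound-dosed animals against vehicle-only controls as a simple quotient.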

[1] = endpoint: mean survival time, dose: 100.0 mg/kg/injection, schedule: Q01DX009 (ip), vehicle: saline with Tween-80
[2] = endpoint: mean survival time, dose: 200.0 mg/kg/injection, schedule: Q01DX009 (ip), vehicle: saline with Tween-80
[3] = endpoint: mean survival time, dose: 400.0 mg/kg/injection, schedule: Q01DX009 (ip), vehicle: saline with Tween-80
[4] = endpoint: mean survival time, dose: 100.0 mg/kg/injection, schedule: Q01DX001 (ip), vehicle: saline with Tween-80
[5] = endpoint: mean survival time, dose: 200.0 mg/kg/injection, schedule: Q01DX001 (ip), vehicle: saline with Tween-80
[6] = endpoint: mean survival time, dose: 25.0 mg/kg/injection, schedule: Q01DX009 (ip), vehicle: saline with Tween-80
[7] = endpoint: mean survival time, dose: 50.0 mg/kg/injection, schedule: Q01DX009 (ip), vehicle: saline with Tween-80

## CCC(CC)C(O)C(C)C(C)O (stereo not drawn)
[1]
  T/C: 91 % of control
[2]
  T/C: 91 % of control
[3]
  T/C: 91 % of control

## O=[N+]([O-])c1cccc2c1ccc1cccnc12
endpoint: mean survival time, dose: 100.0 mg/kg/injection, schedule: Q04DX002 (ip), vehicle: saline with Tween-80
  T/C: 90 % of control
endpoint: mean survival time, dose: 200.0 mg/kg/injection, schedule: Q04DX002 (ip), vehicle: saline with Tween-80
  T/C: 95 % of control
endpoint: mean survival time, dose: 400.0 mg/kg/injection, schedule: Q04DX002 (ip), vehicle: saline with Tween-80
  T/C: 98 % of control

## O=C(C=C(C(F)(F)F)C(F)(F)F)c1cccc([N+](=O)[O-])c1
endpoint: mean survival time, dose: 12.5 mg/kg/injection, schedule: Q04DX003 (ip), vehicle: saline with Tween-80
  T/C: 103 % of control
endpoint: mean survival time, dose: 25.0 mg/kg/injection, schedule: Q04DX003 (ip), vehicle: saline with Tween-80
  T/C: 96 % of control

## Cc1cnc(Cl)c(Br)c1
[4]
  T/C: 96 % of control
[1]
  T/C: 104 % of control
[5]
  T/C: 101 % of control
[2]
  T/C: 100 % of control
endpoint: mean survival time, dose: 400.0 mg/kg/injection, schedule: Q01DX001 (ip), vehicle: saline with Tween-80
  T/C: 95 % of control
[3]
  T/C: 106 % of control

## CN(C)N=Nc1c(F)c(F)cc(F)c1F
[6]
  T/C: 102 % of control
[7]
  T/C: 107 % of control
[2]
  T/C: 151 % of control
[3]
  T/C: 112 % of control

## O=C(Nc1ccccc1)c1c(O)[nH]c(=O)[nH]c1=O
endpoint: median survival time, dose: 25.0 mg/kg/injection, schedule: Q01DX009 (ip), vehicle: saline with Tween-80
  T/C: 112 % of control [middle of 5 runs]
endpoint: median survival time, dose: 50.0 mg/kg/injection, schedule: Q01DX009 (ip), vehicle: saline with Tween-80
  T/C: 124 % of control and 112 % of control and 108 % of control
endpoint: median survival time, dose: 200.0 mg/kg/injection, schedule: Q01DX009 (ip), vehicle: saline with Tween-80
  T/C: 166 % of control and 179 % of control and 211 % of control
endpoint: median survival time, dose: 400.0 mg/kg/injection, schedule: Q01DX009 (ip), vehicle: saline with Tween-80
  T/C: 233 % of control

## COc1ccccc1C1N(C)CCCN1C
endpoint: mean survival time, dose: 6.25 mg/kg/injection, schedule: Q01DX009 (ip), vehicle: saline with Tween-80
  T/C: 100 % of control
endpoint: mean survival time, dose: 12.5 mg/kg/injection, schedule: Q01DX009 (ip), vehicle: saline with Tween-80
  T/C: 102 % of control
[6]
  T/C: 102 % of control

## O=[N+]([O-])c1ccc(OCCBr)cc1
endpoint: mean survival time, dose: 100.0 mg/kg/injection, schedule: Q01DX009 (ip), vehicle: other
  T/C: 91 % of control
endpoint: mean survival time, dose: 200.0 mg/kg/injection, schedule: Q01DX009 (ip), vehicle: other
  T/C: 98 % of control
endpoint: mean survival time, dose: 400.0 mg/kg/injection, schedule: Q01DX009 (ip), vehicle: other
  T/C: 94 % of control

## CCC(O)C[As](=O)(O)c1ccc(Cl)cc1 (stereo not drawn)
endpoint: mean survival time, dose: 0.38 mg/kg/injection, schedule: Q01DX009 (ip), vehicle: water
  T/C: 98 % of control
endpoint: mean survival time, dose: 0.78 mg/kg/injection, schedule: Q01DX009 (ip), vehicle: water
  T/C: 98 % of control
endpoint: mean survival time, dose: 1.5 mg/kg/injection, schedule: Q01DX009 (ip), vehicle: water
  T/C: 94 % of control

## N=c1c2ccn(C3OC(CO)C(O)C3O)c2ncn1N (stereo not drawn)
endpoint: mean survival time, dose: 12.5 mg/kg/injection, schedule: Q01DX005 (ip), vehicle: water
  T/C: 115 % of control
endpoint: mean survival time, dose: 25.0 mg/kg/injection, schedule: Q01DX005 (ip), vehicle: water
  T/C: 110 % of control
endpoint: mean survival time, dose: 50.0 mg/kg/injection, schedule: Q01DX005 (ip), vehicle: water
  T/C: 115 % of control and 116 % of control
endpoint: mean survival time, dose: 100.0 mg/kg/injection, schedule: Q01DX005 (ip), vehicle: water
  T/C: 94 % of control

## CCN(CC)CCC(CN(C)C)C(C)=O (stereo not drawn)
endpoint: mean survival time, dose: 75.0 mg/kg/injection, schedule: Q01DX001 (ip), vehicle: other
  T/C: 106 % of control
endpoint: mean survival time, dose: 150.0 mg/kg/injection, schedule: Q01DX001 (ip), vehicle: other
  T/C: 103 % of control
endpoint: mean survival time, dose: 300.0 mg/kg/injection, schedule: Q01DX001 (ip), vehicle: other
  T/C: 96 % of control

## CC(C)(C)C1=CC(=O)C(C(C)(C)C)=CC1=O
[4]
  T/C: 97 % of control
[5]
  T/C: 103 % of control

## CCCCCCCCCCCCCCBr
[7]
  T/C: 96 % of control
[1]
  T/C: 103 % of control
[2]
  T/C: 96 % of control

## O=C(O)c1cc(=O)cc(C(=O)O)o1
[6]
  T/C: 91 % of control
endpoint: mean survival time, dose: 50.0 mg/kg/injection, schedule: Q01DX009 (ip), vehicle: Klucel (hydroxypropylcellulose) (HPC)
  T/C: 91 % of control
[7]
  T/C: 90 % of control
endpoint: mean survival time, dose: 100.0 mg/kg/injection, schedule: Q01DX009 (ip), vehicle: Klucel (hydroxypropylcellulose) (HPC)
  T/C: 91 % of control
[1]
  T/C: 95 % of control

Reference: PubChem BioAssay AID256 (DTP/NCI, 2004)
